30 compounds from patent publication US11802111B2, “Cyclobutyl amide monoacylglycerol lipase modulators” (Janssen Pharmaceutica NV, priority 2020, dated 2023) can be followed below.

Sequence of human MGL from HeLa cells (Q99685 whole entry): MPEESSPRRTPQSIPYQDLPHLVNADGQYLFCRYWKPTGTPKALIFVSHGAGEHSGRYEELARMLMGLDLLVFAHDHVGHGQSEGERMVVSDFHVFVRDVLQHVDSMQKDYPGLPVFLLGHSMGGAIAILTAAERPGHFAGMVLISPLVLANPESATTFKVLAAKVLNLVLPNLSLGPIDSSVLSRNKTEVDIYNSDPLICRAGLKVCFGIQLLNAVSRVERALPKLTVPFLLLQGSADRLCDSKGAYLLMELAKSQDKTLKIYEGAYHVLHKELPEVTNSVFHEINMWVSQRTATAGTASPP

This experiment addresses human MGL from HeLa cells (Homo sapiens (Human), UniProt Q99685). Description: MGL in vitro activity assay ([glycerol-1,3-3H]-oleoyl glycerol hydrolysis, activated carbon filtration). It is filed as biochemical. To be noted: 300 nM [Glycerol-1,3-3H]-oleoyl glycerol, one hour. The method in brief: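 Endogenous human MGL in HeLa cells/homogenates incubated 1 h with test compounds and 300 nM [glycerol-1,3-3H]-oleoyl glycerol. Released 3H-glycerol passing an activated carbon filter counted as activity; screening at 10 μM compound, top IC50 concentration set empirically.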
As usually defined, the IC50 is the midpoint of a concentration-inhibition curve. Higher therefore signals lower potency. Compound `Cn1cc(C(F)(F)F)c2ccc(OC3CCC4(CC3)CN(C(=O)[C@H]3C[C@@](C)(O)C3)C4)nc21` [Example 476, ((1s,3s)-3-Hydroxy-3-methylcyclobutyl)(7-((1-methyl-3-(trifluoromethyl)-1H-pyrrolo[2,3-b]pyridin-6-yl)oxy)-2-azaspiro[3.5]nonan-2-yl)methanone] had an IC50 of 1.4 nM.

`C[C@]1(O)C[C@@H](C(=O)N2CC3(CC[C@H](c4ccc(OC(F)(F)F)cc4)C3)C2)C1` (stereo in doubt) [Example 54, ((1s,3*R)-3-Hydroxy-3-methylcyclobutyl)((*S)-6-(4-(trifluoromethoxy)phenyl)-2-azaspiro[3.4]octan-2-yl)methanone] showed an IC50 of 10 nM.

`Cc1cc(CC2CCC3(CC2)CN(C(=O)[C@H]2C[C@@](C)(O)C2)C3)ccc1F` [Example 399, (7-(4-Fluoro-3-methylbenzyl)-2-azaspiro[3.5]nonan-2-yl)((1s,3s)-3-hydroxy-3-methylcyclobutyl)methanone] came in with an IC50 of 19 nM. Compared with the last compound, the IC50 is about 1.9-fold higher.

`Cn1ccc2ccc(C(F)(F)C3CC4(C3)CN(C(=O)[C@H]3C[C@@](C)(O)C3)C4)nc21` [Example 317, (6-(Difluoro(1-methyl-1H-pyrrolo[2,3-b]pyridin-6-yl)methyl)-2-azaspiro[3.3]heptan-2-yl)((1s,3s)-3-hydroxy-3-methylcyclobutyl)methanone]: the IC50 is 69 nM.

Regarding `Cc1nc(OC2CC3(CCN(C(=O)[C@H]4C[C@@](C)(O)C4)CC3)C2)ccc1C(F)(F)F` [Example 482, ((1s,3s)-3-Hydroxy-3-methylcyclobutyl)(2-((6-methyl-5-(trifluoromethyl)pyridin-2-yl)oxy)-7-azaspiro[3.5]nonan-7-yl)methanone], the IC50 is 61 nM.

In turn, `Cn1ncc2ccc(CC3CC4(C3)CN(C(=O)[C@H]3C[C@@](C)(O)C3)C4)c(F)c21` [Example 305, (6-((7-Fluoro-1-methyl-1H-indazol-6-yl)methyl)-2-azaspiro[3.3]heptan-2-yl)((1s,3s)-3-hydroxy-3-methylcyclobutyl)methanone] came in with an IC50 of 28 nM.

In the case of `C[C@]1(O)C[C@@H](C(=O)N2CC3(CC(Cc4ccc(C(F)(F)F)cc4)C3)C2)C1` [Example 195, ((1s,3s)-3-Hydroxy-3-methylcyclobutyl)(6-(4-(trifluoromethyl)benzyl)-2-azaspiro[3.3]heptan-2-yl)methanone], it took 4.2 nM to reach half-maximal inhibition (IC50).

`CCOc1cc(C2CCC3(CC2)CN(C(=O)[C@H]2C[C@@](C)(O)C2)C3)cc(C(F)(F)F)c1` [Example 120, (7-(3-Ethoxy-5-(trifluoromethyl)phenyl)-2-azaspiro[3.5]nonan-2-yl)((1s,3s)-3-hydroxy-3-methylcyclobutyl)methanone]: 141 nM corresponded to half-maximal inhibition (IC50).

`Cn1ccc2cc(C3CC4(C3)CN(C(=O)[C@H]3C[C@@](C)(O)C3)C4)cnc21` [Example 268, ((1s,3s)-3-Hydroxy-3-methylcyclobutyl)(6-(1-methyl-1H-pyrrolo[2,3-b]pyridin-5-yl)-2-azaspiro[3.3]heptan-2-yl)methanone] showed an IC50 of 2400 nM.

With `COc1nc(OC2CCC3(CC2)CN(C(=O)[C@H]2C[C@@](C)(O)C2)C3)ccc1C1CC1` [Example 455, (7-((5-Cyclopropyl-6-methoxypyridin-2-yl)oxy)-2-azaspiro[3.5]nonan-2-yl)((1s,3s)-3-hydroxy-3-methylcyclobutyl)methanone], the IC50 worked out at 1.3 nM.

Consider `CC(F)(F)c1cccc(C2CCC3(C2)CN(C(=O)[C@H]2C[C@@](C)(O)C2)C3)c1` (mixture of isomers) [Example 90, (rac)-(6-(3-(1,1-Difluoroethyl)phenyl)-2-azaspiro[3.4]octan-2-yl)((1s,3s)-3-hydroxy-3-methylcyclobutyl)methanone], for which the concentration for half-maximal inhibition (IC50) worked out at 64 nM.

The compound `Cc1ccc(CC2CCC3(CC2)CN(C(=O)[C@H]2C[C@@](C)(O)C2)C3)cc1` [Example 397, ((1s,3s)-3-Hydroxy-3-methylcyclobutyl)(7-(4-methylbenzyl)-2-azaspiro[3.5]nonan-2-yl)methanone] returned an IC50 of 16 nM.

For the compound `Cc1cc(OC(F)(F)F)ccc1C1CCC2(C1)CN(C(=O)[C@H]1C[C@@](C)(O)C1)C2` (mixture of isomers) [Example 9, (rac)-((1s,3s)-3-Hydroxy-3-methylcyclobutyl)(6-(2-methyl-4-(trifluoromethoxy)phenyl)-2-azaspiro[3.4]octan-2-yl)methanonemethanone], 3.4 nM corresponded to half-maximal inhibition (IC50).

In the case of `C[C@]1(O)C[C@@H](C(=O)N2CCC3(CC2)CC(Cc2ccccc2)C3)C1` [Example 172, (2-Benzyl-7-azaspiro[3.5]nonan-7-yl)((1s,3s)-3-hydroxy-3-methylcyclobutyl)methanone], the concentration for half-maximal inhibition (IC50) came to 74 nM.

Compound `Cc1cccc(CC2CCC3(C2)CN(C(=O)[C@H]2C[C@@](C)(O)C2)C3)c1` (mixture of isomers) [Example 174, (rac)-((1s,3s)-3-Hydroxy-3-methylcyclobutyl)(6-(3-methylbenzyl)-2-azaspiro[3.4]octan-2-yl)methanone] gave a half-maximal inhibitory concentration (IC50) of 23 nM.

Compound `Cc1c(CC2CC3(C2)CN(C(=O)[C@H]2C[C@@](C)(O)C2)C3)cccc1C(F)(F)F` [Example 155, ((1s,3s)-3-Hydroxy-3-methylcyclobutyl)(6-(2-methyl-3-(trifluoromethyl)benzyl)-2-azaspiro[3.3]heptan-2-yl)methanone] showed a half-maximal inhibitory concentration (IC50) of 3 nM. Compared with the last compound, the IC50 is about 7.7-fold lower.

In the case of `C[C@]1(O)C[C@@H](C(=O)N2CC3(CCC(Oc4cccc(OC(F)(F)F)c4)CC3)C2)C1` [Example 263, ((1s,3s)-3-Hydroxy-3-methylcyclobutyl)(7-(3-(trifluoromethoxy)phenoxy)-2-azaspiro[3.5]nonan-2-yl)methanone], the IC50 turned out to be 12 nM.

Compound `C[C@]1(O)C[C@@H](C(=O)N2CC3(CCC(c4cccc(C5CC5)c4F)C3)C2)C1` (mixture of isomers) [Example 24, (rac)-(6-(3-Cyclopropyl-2-fluorophenyl)-2-azaspiro[3.4]octan-2-yl)((1s,3s)-3-hydroxy-3-methylcyclobutyl)methanone] had an IC50 of 11 nM.

For `Cc1ccc(OC2CCC3(C2)CN(C(=O)[C@H]2C[C@@](C)(O)C2)C3)nc1C(F)(F)F` (mixture of isomers) [Example 336, (rac)-((1s,3s)-3-Hydroxy-3-methylcyclobutyl)(6-((5-methyl-6-(trifluoromethyl)pyridin-2-yl)oxy)-2-azaspiro[3.4]octan-2-yl)methanone], the IC50 came out at 91 nM. Compared with the last compound, the IC50 is about 8.3-fold higher.

Turning to `CC(C)(C)c1ccccc1CC1CC2(C1)CN(C(=O)[C@H]1C[C@@](C)(O)C1)C2` [Example 208, (6-(2-(tert-Butyl)benzyl)-2-azaspiro[3.3]heptan-2-yl)((1s,3s)-3-hydroxy-3-methylcyclobutyl)methanone], the midpoint of inhibition, the IC50, lay at 5.3 nM.

As for `Cn1ncc2ccc(OC3CCC4(CC3)CN(C(=O)[C@H]3C[C@@](C)(O)C3)C4)nc21` [Example 477, ((1s,3s)-3-Hydroxy-3-methylcyclobutyl)(7-((1-methyl-1H-pyrazolo[3,4-b]pyridin-6-yl)oxy)-2-azaspiro[3.5]nonan-2-yl)methanone], the IC50 was found to be 146 nM. This IC50 is about 28-fold higher than that of the compound before.

Regarding `CC1(c2cccc(C3CCC4(CC3)CN(C(=O)[C@H]3C[C@@](C)(O)C3)C4)n2)CC1` [Example 372, ((1s,3s)-3-Hydroxy-3-methylcyclobutyl)(7-(6-(1-methylcyclopropyl)pyridin-2-yl)-2-azaspiro[3.5]nonan-2-yl)methanone], the IC50 is 5.1 nM.

Consider `C[C@]1(O)C[C@@H](C(=O)N2CC3(CC(Cn4ccc5cccnc54)C3)C2)C1` [Example 286, (6-((1H-Pyrrolo[2,3-b]pyridin-1-yl)methyl)-2-azaspiro[3.3]heptan-2-yl)((1s,3s)-3-hydroxy-3-methylcyclobutyl)methanone], for which half-maximal inhibition (IC50) required 90 nM.

`Cc1cc(C(F)(F)F)cc(OC2CCC3(CC2)CN(C(=O)[C@H]2C[C@@](C)(O)C2)C3)n1` [Example 447, ((1s,3s)-3-Hydroxy-3-methylcyclobutyl)(7-((6-methyl-4-(trifluoromethyl)pyridin-2-yl)oxy)-2-azaspiro[3.5]nonan-2-yl)methanone] registered an IC50 of 110 nM.

As to `CC(C)(C)c1cccc(C2CC3(CCN(C(=O)[C@H]4C[C@@](C)(O)C4)CC3)C2)c1` [Example 153, (2-(3-(tert-Butyl)phenyl)-7-azaspiro[3.5]nonan-7-yl)((1s,3s)-3-hydroxy-3-methylcyclobutyl)methanone], half-maximal inhibition (IC50) required 22 nM. This IC50 lies about 5-fold lower than the previous one.

In turn, `CC(C)(C)c1cccc(OC2CCC3(C2)CN(C(=O)[C@H]2C[C@@](C)(O)C2)C3)c1` (mixture of isomers) [Example 243, (rac)-(6-(3-(tert-Butyl)phenoxy)-2-azaspiro[3.4]octan-2-yl)((1s,3s)-3-hydroxy-3-methylcyclobutyl)methanone] registered a concentration for half-maximal inhibition (IC50) of 26 nM.

The compound `C[C@]1(O)C[C@@H](C(=O)N2CC3(CC[C@@H](c4cccc(C5CC5)c4F)C3)C2)C1` (stereo in doubt) [Example 25, ((*R)-6-(3-Cyclopropyl-2-fluorophenyl)-2-azaspiro[3.4]octan-2-yl)((1s,3*S)-3-hydroxy-3-methylcyclobutyl)methanone] yielded a half-maximal inhibitory concentration (IC50) of 4 nM.

`Cc1cc(C(F)(F)F)ccc1OC1CC2(CCN(C(=O)[C@H]3C[C@@](C)(O)C3)CC2)C1` [Example 479, ((1s,3s)-3-Hydroxy-3-methylcyclobutyl)(2-(2-methyl-4-(trifluoromethyl)phenoxy)-7-azaspiro[3.5]nonan-7-yl)methanone] had an IC50 of 3.1 nM.

The compound `C[C@]1(O)C[C@@H](C(=O)N2CCC3(CCC(c4ccc(C(F)(F)F)cc4)C3)CC2)C1` (mixture of isomers) [Example 152, (rac)-((1s,3s)-3-Hydroxy-3-methylcyclobutyl)(2-(4-(trifluoromethyl)phenyl)-8-azaspiro[4.5]decan-8-yl)methanone] returned a half-maximal inhibitory concentration (IC50) of 3.3 nM. The IC50 values of the last two compounds are within 1.5-fold of each other.

In the case of `C[C@]1(O)C[C@@H](C(=O)N2CC3(CCC(c4ccc(-n5cccn5)cc4)CC3)C2)C1` [Example 346, (7-(4-(1H-Pyrazol-1-yl)phenyl)-2-azaspiro[3.5]nonan-2-yl)((1s,3s)-3-hydroxy-3-methylcyclobutyl)methanone], the IC50 was 295 nM.
